This data set can be described thus: Release from reservoir devices submerged in PBS. Type of data set: physicochemical. To be noted: physiologically-triggerable membrane. The protocol:
The devices were constructed as follows. Two 1 cm diameter disks were punched out of a membrane sheet produced as described above. A 1 cm length of ⅜ inch OD (¼ inch ID) silicone tubing (currently used for catheters) was then cut and a membrane disk was glued to one side of the tube using a LockTite low viscosity quick drying adhesive. (1 inch=2.54 cm) After 30 minutes of drying (under light pressure), the membrane-backed tube was then filled with drug or indicator solution. Sodium fluorescein (100 mg/mL in saline) and bupivacaine (10 mg/mL in saline, as well as bupivacaine powder in a saturated saline solution with solid chunks of drug also added to give a larger drug reservoir for release) were tested. The top membrane was then attached using glue following the same technique as for the bottom membrane and set for 30 minutes under light pressure. […] For flux testing, the devices were submerged in 5 mL of PBS at a specific test temperature, with samples taken at predetermined intervals to track the release kinetics. For the microwave antenna devices, two 0.4 cm […] strips of aluminum foil were glued to the outside of the device, one at the top of the device and the other at the bottom of the device (with a 0.2 mm gap in the center) using the same adhesive.

Here are results for one compound from patent US20110212027A1, “RADIATIVE HEATING FOR DRUG DELIVERY AND OTHER APPLICATIONS” (priority 2008, published 2011).

On to `CCCCN1CCCCC1C(=O)Nc1c(C)cccc1C` (centres unmarked) [bupivacaine], for which the “release of bupivacaine from device into PBS” value is “below the minimal effective dose” (37° C.) and “above the minimal effective dose” (50° C.).
